Test results taken from US20240209001A1, “HETEROCYCLIC DERIVATIVES AS JANUS KINASE INHIBITORS” (CHIESI FARMACEUTICI S.P. A., priority 2021, published 2024).

Key:
JAK 1 = JAK 1 (Homo sapiens (Human), UniProt P23458); assay: Biochemical potency on JAK1, TR-FRET LANCE Ultra kinase assay (compounds 1-92); details: ATP at Km, read-out: JAK1 inhibitory activity (pIC50 class) (converted)
Method in brief: (§1)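 TR-FRET (LANCE Ultra) phosphorylation of ULight-JAK-1 peptide, ATP at Km: JAK1/JAK2/JAK3/TYK2 peptide 30/50/20/10 nM, ATP 20/0.7/0.2/12 μM, enzyme 0.15/0.083/0.025/0.144 ng/μL. 11-point 5-fold series from 20 μM; 1.5 h RT, EDTA stop, Eu-anti-pTyr detection 1 h; IC50 by variable-slope fit.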

JAK 2 = JAK 2 (Homo sapiens (Human), UniProt O60674); assay: Biochemical potency on JAK2, TR-FRET LANCE Ultra kinase assay (compounds 1-92); details: ATP at Km, read-out: JAK2 inhibitory activity (pIC50 class) (converted)
Sequence of JAK 2 (O60674 whole entry): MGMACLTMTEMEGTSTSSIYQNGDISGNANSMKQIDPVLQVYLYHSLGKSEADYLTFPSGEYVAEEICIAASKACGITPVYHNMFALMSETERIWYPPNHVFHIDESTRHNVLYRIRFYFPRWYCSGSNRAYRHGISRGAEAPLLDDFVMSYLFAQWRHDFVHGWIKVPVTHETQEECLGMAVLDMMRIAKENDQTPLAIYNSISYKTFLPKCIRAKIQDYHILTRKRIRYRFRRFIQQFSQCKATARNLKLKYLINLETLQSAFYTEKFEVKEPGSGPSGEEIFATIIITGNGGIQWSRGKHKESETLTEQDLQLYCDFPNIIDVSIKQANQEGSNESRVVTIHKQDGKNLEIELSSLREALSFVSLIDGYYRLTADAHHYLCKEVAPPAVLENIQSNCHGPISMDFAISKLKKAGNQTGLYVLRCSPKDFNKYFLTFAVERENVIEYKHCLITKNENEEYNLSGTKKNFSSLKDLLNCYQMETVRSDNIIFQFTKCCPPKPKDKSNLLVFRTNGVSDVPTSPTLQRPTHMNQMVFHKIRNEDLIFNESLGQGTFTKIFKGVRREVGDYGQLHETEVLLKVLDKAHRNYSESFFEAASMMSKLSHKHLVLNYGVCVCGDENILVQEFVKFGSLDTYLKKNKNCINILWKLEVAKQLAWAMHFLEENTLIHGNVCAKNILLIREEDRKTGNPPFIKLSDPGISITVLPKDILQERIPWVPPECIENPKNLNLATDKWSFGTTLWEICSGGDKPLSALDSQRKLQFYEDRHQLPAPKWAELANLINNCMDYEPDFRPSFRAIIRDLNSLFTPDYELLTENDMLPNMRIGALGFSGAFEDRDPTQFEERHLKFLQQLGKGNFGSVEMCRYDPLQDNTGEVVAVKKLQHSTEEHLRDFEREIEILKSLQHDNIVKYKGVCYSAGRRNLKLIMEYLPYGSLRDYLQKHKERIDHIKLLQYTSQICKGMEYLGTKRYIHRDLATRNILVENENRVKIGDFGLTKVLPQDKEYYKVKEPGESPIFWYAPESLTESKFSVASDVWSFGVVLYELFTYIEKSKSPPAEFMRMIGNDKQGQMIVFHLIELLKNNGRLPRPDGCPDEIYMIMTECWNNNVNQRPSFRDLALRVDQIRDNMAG
Method in brief: as §1

JAK 3 = JAK 3 (Homo sapiens (Human), UniProt P52333); assay: Biochemical potency on JAK3, TR-FRET LANCE Ultra kinase assay (compounds 1-92); details: ATP at Km, read-out: JAK3 inhibitory activity (pIC50 class) (converted)
Sequence of JAK 3 (P52333 whole entry): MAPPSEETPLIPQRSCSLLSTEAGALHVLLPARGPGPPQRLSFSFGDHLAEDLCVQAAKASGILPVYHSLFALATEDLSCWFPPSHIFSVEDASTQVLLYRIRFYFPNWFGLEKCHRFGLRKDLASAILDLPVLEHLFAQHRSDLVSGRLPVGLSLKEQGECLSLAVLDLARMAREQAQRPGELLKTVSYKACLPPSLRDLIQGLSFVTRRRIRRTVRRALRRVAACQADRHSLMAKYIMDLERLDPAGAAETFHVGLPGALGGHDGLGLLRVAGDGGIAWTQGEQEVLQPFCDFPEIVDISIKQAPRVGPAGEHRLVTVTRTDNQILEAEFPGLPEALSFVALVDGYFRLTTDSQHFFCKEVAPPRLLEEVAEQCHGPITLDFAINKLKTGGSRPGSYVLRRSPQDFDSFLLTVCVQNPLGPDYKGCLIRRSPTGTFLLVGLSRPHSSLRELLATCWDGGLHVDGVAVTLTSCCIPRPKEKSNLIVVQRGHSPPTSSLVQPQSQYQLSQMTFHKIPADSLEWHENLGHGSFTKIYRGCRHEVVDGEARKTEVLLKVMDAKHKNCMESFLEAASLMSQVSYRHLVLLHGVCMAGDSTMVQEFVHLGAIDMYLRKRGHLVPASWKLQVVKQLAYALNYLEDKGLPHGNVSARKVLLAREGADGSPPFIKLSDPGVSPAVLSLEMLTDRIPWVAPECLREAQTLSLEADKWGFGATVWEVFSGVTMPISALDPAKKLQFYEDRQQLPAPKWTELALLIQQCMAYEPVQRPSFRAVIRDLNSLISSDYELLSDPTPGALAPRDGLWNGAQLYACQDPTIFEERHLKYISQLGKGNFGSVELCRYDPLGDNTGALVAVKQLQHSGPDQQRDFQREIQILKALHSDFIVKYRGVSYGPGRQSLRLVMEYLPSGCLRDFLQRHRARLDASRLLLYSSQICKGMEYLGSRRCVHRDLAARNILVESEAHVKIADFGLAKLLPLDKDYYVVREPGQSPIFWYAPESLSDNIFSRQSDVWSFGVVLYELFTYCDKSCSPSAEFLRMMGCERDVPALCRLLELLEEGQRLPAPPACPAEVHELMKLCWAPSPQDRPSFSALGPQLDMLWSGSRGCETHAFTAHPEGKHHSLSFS
Method in brief: as §1

TYK2 = TYK2 (Homo sapiens (Human), UniProt P29597); assay: Biochemical potency on Tyk2, TR-FRET LANCE Ultra kinase assay (compounds 1-92); details: ATP at Km, read-out: Tyk2 inhibitory activity (pIC50 class) (converted)
Sequence of TYK2 (P29597 whole entry): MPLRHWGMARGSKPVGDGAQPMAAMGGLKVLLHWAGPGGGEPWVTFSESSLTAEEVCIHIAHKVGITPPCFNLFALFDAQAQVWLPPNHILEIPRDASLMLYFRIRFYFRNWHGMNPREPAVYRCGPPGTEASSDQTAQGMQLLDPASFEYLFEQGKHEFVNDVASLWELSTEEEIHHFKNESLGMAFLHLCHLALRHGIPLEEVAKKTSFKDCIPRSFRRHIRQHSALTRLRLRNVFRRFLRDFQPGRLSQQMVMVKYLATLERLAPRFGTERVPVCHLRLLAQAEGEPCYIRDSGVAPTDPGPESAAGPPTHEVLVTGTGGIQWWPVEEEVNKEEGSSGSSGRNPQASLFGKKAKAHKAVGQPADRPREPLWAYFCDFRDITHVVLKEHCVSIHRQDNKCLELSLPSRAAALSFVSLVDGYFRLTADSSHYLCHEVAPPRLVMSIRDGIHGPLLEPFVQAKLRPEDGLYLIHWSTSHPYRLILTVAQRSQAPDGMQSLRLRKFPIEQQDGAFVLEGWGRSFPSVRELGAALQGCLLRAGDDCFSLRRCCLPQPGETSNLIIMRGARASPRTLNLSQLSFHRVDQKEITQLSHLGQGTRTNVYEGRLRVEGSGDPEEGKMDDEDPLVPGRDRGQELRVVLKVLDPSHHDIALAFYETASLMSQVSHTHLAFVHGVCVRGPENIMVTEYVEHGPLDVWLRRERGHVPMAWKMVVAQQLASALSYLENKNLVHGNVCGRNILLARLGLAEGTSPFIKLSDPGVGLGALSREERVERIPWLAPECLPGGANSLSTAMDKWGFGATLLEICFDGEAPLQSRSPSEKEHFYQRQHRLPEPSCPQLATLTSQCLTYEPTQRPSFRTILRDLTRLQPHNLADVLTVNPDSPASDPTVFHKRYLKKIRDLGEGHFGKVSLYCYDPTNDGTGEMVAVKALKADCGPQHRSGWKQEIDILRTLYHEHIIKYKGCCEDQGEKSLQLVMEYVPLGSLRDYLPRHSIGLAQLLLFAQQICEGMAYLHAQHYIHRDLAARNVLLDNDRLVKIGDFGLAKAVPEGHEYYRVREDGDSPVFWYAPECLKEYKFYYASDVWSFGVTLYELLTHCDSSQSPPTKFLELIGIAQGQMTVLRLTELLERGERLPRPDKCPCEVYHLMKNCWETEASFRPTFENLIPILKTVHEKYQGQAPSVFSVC
Method in brief: as §1

Sequence of JAK 1 (P23458 whole entry): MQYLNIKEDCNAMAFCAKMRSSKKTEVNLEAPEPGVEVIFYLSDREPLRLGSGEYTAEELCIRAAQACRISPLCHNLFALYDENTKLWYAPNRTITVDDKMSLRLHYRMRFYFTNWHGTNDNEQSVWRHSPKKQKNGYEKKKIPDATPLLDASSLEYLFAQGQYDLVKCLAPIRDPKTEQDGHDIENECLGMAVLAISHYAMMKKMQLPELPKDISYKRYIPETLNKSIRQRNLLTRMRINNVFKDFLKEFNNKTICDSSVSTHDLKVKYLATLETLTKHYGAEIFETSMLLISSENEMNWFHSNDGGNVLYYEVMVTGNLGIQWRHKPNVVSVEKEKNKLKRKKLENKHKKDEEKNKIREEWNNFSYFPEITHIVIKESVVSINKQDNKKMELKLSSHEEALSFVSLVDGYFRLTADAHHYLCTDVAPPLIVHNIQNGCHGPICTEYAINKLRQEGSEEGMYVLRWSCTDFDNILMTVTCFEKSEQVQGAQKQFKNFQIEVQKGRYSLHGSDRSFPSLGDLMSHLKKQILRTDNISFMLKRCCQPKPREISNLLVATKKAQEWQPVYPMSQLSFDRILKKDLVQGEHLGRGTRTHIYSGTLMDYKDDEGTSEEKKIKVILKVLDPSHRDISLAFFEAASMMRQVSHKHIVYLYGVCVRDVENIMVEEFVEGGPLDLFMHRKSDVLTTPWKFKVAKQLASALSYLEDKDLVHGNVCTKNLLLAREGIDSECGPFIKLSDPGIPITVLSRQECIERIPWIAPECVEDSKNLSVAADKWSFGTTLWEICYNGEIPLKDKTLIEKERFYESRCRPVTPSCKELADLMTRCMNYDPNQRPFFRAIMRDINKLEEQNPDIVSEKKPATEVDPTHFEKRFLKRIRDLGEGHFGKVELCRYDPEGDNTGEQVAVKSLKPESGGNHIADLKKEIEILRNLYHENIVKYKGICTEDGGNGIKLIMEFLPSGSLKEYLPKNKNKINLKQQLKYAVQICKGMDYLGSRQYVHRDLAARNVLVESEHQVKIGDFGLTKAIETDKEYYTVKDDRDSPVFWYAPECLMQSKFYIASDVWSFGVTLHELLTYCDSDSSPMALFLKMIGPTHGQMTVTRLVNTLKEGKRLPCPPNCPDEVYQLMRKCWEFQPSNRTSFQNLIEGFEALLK

Row | IC50 (JAK 1) [nM] | IC50 (JAK 2) [nM] | IC50 (JAK 3) [nM] | IC50 (TYK2) [nM] | SMILES
1 | > 50.1 | > 50.1 | > 50.1 | > 50.1 | COc1cc(CN)ccc1-n1nc(C)c2cnc(-c3cnn4cccnc34)cc21 [Example 67, (3-methoxy-4-(3-methyl-6-(pyrazolo[1,5-a]pyrimidin-3-yl)-1H-pyrazolo[4,3-c]pyridin-1-yl)phenyl)methanamine]
2 | ≤ 5.01 | ≤ 5.01 | ≤ 5.01 | 5.01 to 50.1 | COc1cc(NS(=O)(=O)C2COC2)ccc1-n1nc(C)c2cnc(-c3cnn4cccnc34)cc21 [Example 8, N-(3-methoxy-4-(3-methyl-6-(pyrazolo[1,5-a]pyrimidin-3-yl)-1H-pyrazolo[4,3-c]pyridin-1-yl)phenyl)oxetane-3-sulfonamide]
3 | 5.01 to 50.1 | 5.01 to 50.1 | 5.01 to 50.1 | > 50.1 | COc1cc(N)ccc1-n1nc(C)c2cnc(-c3cnn4cccnc34)cc21 [Example 17, 3-methoxy-4-(3-methyl-6-(pyrazolo[1,5-a]pyrimidin-3-yl)-1H-pyrazolo[4,3-c]pyridin-1-yl)aniline]
4 | ≤ 5.01 | ≤ 5.01 | ≤ 5.01 | 5.01 to 50.1 | COc1cc(NS(C)(=O)=O)ccc1-n1nc(NCCN2CCN(C)CC2)c2cnc(-c3cnn4cccnc34)cc21 [Example 38, N-(3-methoxy-4-(3-((2-(4-methylpiperazin-1-yl)ethyl)amino)-6-(pyrazolo[1,5-a]pyrimidin-3-yl)-1H-pyrazolo[4,3-c]pyridin-1-yl)phenyl)methanesulfonamide]
5 | 5.01 to 50.1 | 5.01 to 50.1 | ≤ 5.01 | > 50.1 | O=S(=O)(Nc1ccc(-n2nc(NCCN3CCOCC3)c3cnc(-c4cnn5cccnc45)cc32)c(OC(F)F)c1)C1CC1 [Example 25, N-(3-(difluoromethoxy)-4-(3-((2-morpholinoethyl)amino)-6-(pyrazolo[1,5-a]pyrimidin-3-yl)-1H-pyrazolo[4,3-c]pyridin-1-yl)phenyl)cyclopropanesulfonamide]
6 | ≤ 5.01 | ≤ 5.01 | ≤ 5.01 | > 50.1 | COc1cc(NS(C)(=O)=O)cnc1-n1nc(C)c2cnc(-c3cnn4cccnc34)cc21 [Example 11, N-(5-methoxy-6-(3-methyl-6-(pyrazolo[1,5-a]pyrimidin-3-yl)-1H-pyrazolo[4,3-c]pyridin-1-yl)pyridin-3-yl)methanesulfonamide]
7 | 5.01 to 50.1 | 5.01 to 50.1 | 5.01 to 50.1 | 5.01 to 50.1 | COc1cc(NS(=O)(=O)C2CC2)ccc1-n1nc(NCCN2CCCCC2)c2cnc(-c3cnn4cccnc34)cc21 [Example 36, N-(3-methoxy-4-(3-((2-(piperidin-1-yl)ethyl)amino)-6-(pyrazolo[1,5-a]pyrimidin-3-yl)-1H-pyrazolo[4,3-c]pyridin-1-yl)phenyl)cyclopropanesulfonamide]
8 | 5.01 to 50.1 | 5.01 to 50.1 | 5.01 to 50.1 | > 50.1 | COc1cc(NC(=O)c2ccccc2)ccc1-n1nc(C)c2cnc(-c3cnn4cccnc34)cc21 [Example 74, N-(3-methoxy-4-(3-methyl-6-(pyrazolo[1,5-a]pyrimidin-3-yl)-1H-pyrazolo[4,3-c]pyridin-1-yl)phenyl)benzamide]
9 | ≤ 5.01 | ≤ 5.01 | ≤ 5.01 | 5.01 to 50.1 | CNc1nn(-c2ccc(S(=O)(=O)NC)cc2OC)c2cc(-c3cnn4cccnc34)ncc12 [Example 51, 3-methoxy-N-methyl-4-(3-(methylamino)-6-(pyrazolo[1,5-a]pyrimidin-3-yl)-1H-pyrazolo[4,3-c]pyridin-1-yl)benzenesulfonamide]
10 | ≤ 5.01 | ≤ 5.01 | 5.01 to 50.1 | 5.01 to 50.1 | COc1cc(NS(=O)(=O)C2CC2)ccc1-n1nc(CC#N)c2cnc(-c3cnn4cccnc34)cc21 [Example 84, N-(4-(3-(cyanomethyl)-6-(pyrazolo[1,5-a]pyrimidin-3-yl)-1H-pyrazolo[4,3-c]pyridin-1-yl)-3-methoxyphenyl)cyclopropanesulfonamide]
11 | ≤ 5.01 | ≤ 5.01 | ≤ 5.01 | 5.01 to 50.1 | CNc1nn(-c2cc(Cl)c(CNS(C)(=O)=O)cc2OC)c2cc(-c3cnn4cccnc34)ncc12 [Example 57, N-(2-chloro-5-methoxy-4-(3-(methylamino)-6-(pyrazolo[1,5-a]pyrimidin-3-yl)-1H-pyrazolo[4,3-c]pyridin-1-yl)benzyl)methanesulfonamide]
12 | ≤ 5.01 | ≤ 5.01 | ≤ 5.01 | 5.01 to 50.1 | COc1cc(NS(=O)(=O)C2CC2)ccc1-n1nc(N[C@H]2C[C@@H](N(C)C)C2)c2cnc(-c3cnn4cccnc34)cc21 [Example 78, N-(4-(3-(((1s,3s)-3-(dimethylamino)cyclobutyl)amino)-6-(pyrazolo[1,5-a]pyrimidin-3-yl)-1H-pyrazolo[4,3-c]pyridin-1-yl)-3-methoxyphenyl)cyclopropanesulfonamide]
13 | 5.01 to 50.1 | ≤ 5.01 | ≤ 5.01 | > 50.1 | CNS(=O)(=O)c1ccc(-n2nc(C)c3cnc(-c4cnn5cccnc45)cc32)c(OC)c1 [Example 49, 3-methoxy-N-methyl-4-(3-methyl-6-(pyrazolo[1,5-a]pyrimidin-3-yl)-1H-pyrazolo[4,3-c]pyridin-1-yl)benzenesulfonamide]
14 | ≤ 5.01 | ≤ 5.01 | ≤ 5.01 | 5.01 to 50.1 | CNc1nn(-c2ccc(NS(C)(=O)=O)cc2OC)c2cc(-c3cnn4cccnc34)ncc12 [Example 23, N-(3-methoxy-4-(3-(methylamino)-6-(pyrazolo[1,5-a]pyrimidin-3-yl)-1H-pyrazolo[4,3-c]pyridin-1-yl)phenyl)methanesulfonamide]
15 | ≤ 5.01 | ≤ 5.01 | ≤ 5.01 | 5.01 to 50.1 | COc1cc(CNS(C)(=O)=O)ccc1-n1nc(NCCN(C)C)c2cnc(-c3cnn4cccnc34)cc21 [Example 56, N-(4-(3-((2-(dimethylamino)ethyl)amino)-6-(pyrazolo[1,5-a]pyrimidin-3-yl)-1H-pyrazolo[4,3-c]pyridin-1-yl)-3-methoxybenzyl)methanesulfonamide]
16 | 5.01 to 50.1 | ≤ 5.01 | 5.01 to 50.1 | 5.01 to 50.1 | COc1cc(NS(=O)(=O)CC2CCCO2)ccc1-n1nc(C)c2cnc(-c3cnn4cccnc34)cc21 (centres unmarked) [Example 2, N-(3-methoxy-4-(3-methyl-6-(pyrazolo[1,5-a]pyrimidin-3-yl)-1H-pyrazolo[4,3-c]pyridin-1-yl)phenyl)-1-(tetrahydrofuran-2-yl)methanesulfonamide]
17 | ≤ 5.01 | ≤ 5.01 | 5.01 to 50.1 | 5.01 to 50.1 | CNc1nn(-c2ccc(NS(=O)(=O)C3CC3)cc2OC)c2cc(-c3cnn4cccnc34)ncc12 [Example 35, N-(3-methoxy-4-(3-(methylamino)-6-(pyrazolo[1,5-a]pyrimidin-3-yl)-1H-pyrazolo[4,3-c]pyridin-1-yl)phenyl)cyclopropanesulfonamide]
18 | ≤ 5.01 | ≤ 5.01 | ≤ 5.01 | 5.01 to 50.1 | COc1cc(NS(=O)(=O)CC(N)=O)ccc1-n1nc(C)c2cnc(-c3cnn4cccnc34)cc21 [Example 14, 2-(N-(3-methoxy-4-(3-methyl-6-(pyrazolo[1,5-a]pyrimidin-3-yl)-1H-pyrazolo[4,3-c]pyridin-1-yl)phenyl)sulfamoyl)acetamide]
19 | ≤ 5.01 | ≤ 5.01 | ≤ 5.01 | 5.01 to 50.1 | Cc1nn(-c2ccc(CNS(C)(=O)=O)cc2OC(F)F)c2cc(-c3cnn4cccnc34)ncc12 [Example 61, N-(3-(difluoromethoxy)-4-(3-methyl-6-(pyrazolo[1,5-a]pyrimidin-3-yl)-1H-pyrazolo[4,3-c]pyridin-1-yl)benzyl)methanesulfonamide]
20 | ≤ 5.01 | ≤ 5.01 | ≤ 5.01 | 5.01 to 50.1 | CCCS(=O)(=O)Nc1ccc(-n2nc(CNC)c3cnc(-c4cnn5cccnc45)cc32)c(OC)c1 [Example 83, N-(3-methoxy-4-(3-((methylamino)methyl)-6-(pyrazolo[1,5-a]pyrimidin-3-yl)-1H-pyrazolo[4,3-c]pyridin-1-yl)phenyl)propane-1-sulfonamide]
21 | ≤ 5.01 | ≤ 5.01 | ≤ 5.01 | 5.01 to 50.1 | COc1cc(CNS(C)(=O)=O)ccc1-n1nc(CC#N)c2cnc(-c3cnn4cccnc34)cc21 [Example 60, N-(4-(3-(cyanomethyl)-6-(pyrazolo[1,5-a]pyrimidin-3-yl)-1H-pyrazolo[4,3-c]pyridin-1-yl)-3-methoxybenzyl)methanesulfonamide]
22 | 5.01 to 50.1 | 5.01 to 50.1 | 5.01 to 50.1 | > 50.1 | CCCS(=O)(=O)Nc1ccc(-n2nc(C(=O)NCCCN(C)C)c3cnc(-c4cnn5cccnc45)cc32)c(OC)c1 [Example 46, N-(3-(dimethylamino)propyl)-1-(2-methoxy-4-(propylsulfonamido)phenyl)-6-(pyrazolo[1,5-a]pyrimidin-3-yl)-1H-pyrazolo[4,3-c]pyridine-3-carboxamide]
23 | 5.01 to 50.1 | ≤ 5.01 | 5.01 to 50.1 | 5.01 to 50.1 | COc1cc(CNS(C)(=O)=O)ccc1-n1nc(NCCN2CCCCC2)c2cnc(-c3cnn4cccnc34)cc21 [Example 54, N-(3-methoxy-4-(3-((2-(piperidin-1-yl)ethyl)amino)-6-(pyrazolo[1,5-a]pyrimidin-3-yl)-1H-pyrazolo[4,3-c]pyridin-1-yl)benzyl)methanesulfonamide]
